Measured values as given in the NIST ThermoML archive (doi:10.1016/j.jct.2004.12.005).

Experiments:
[1] = 298.15 K; 101.33 kPa; Liquid
[2] = excess molar enthalpy (molar enthalpy of mixing); xn = mol fraction of the nth substance listed; conditions: 298.15 K, 101.3 kPa, Liquid, Flow calorimetry

COC(C)(C)C [2-methoxy-2-methylpropane]
Conditions	mass density [kg/m3]
[1]	735.99

CC1CCCO1 (configuration not stated) [2-methyltetrahydrofuran] + COC(C)(C)C
[2]
Conditions	excess molar enthalpy [kcal/mol]
x1 = 0.0499	0.00159
x1 = 0.0998	0.00298
x1 = 0.1498	0.00424
x1 = 0.2002	0.00541
x1 = 0.2501	0.00635
x1 = 0.3004	0.00717
x1 = 0.3504	0.00788
x1 = 0.4001	0.00821
x1 = 0.4501	0.00859
x1 = 0.5007	0.00875
x1 = 0.5495	0.00884
x1 = 0.5999	0.00859
x1 = 0.6501	0.00815
x1 = 0.7002	0.00753
x1 = 0.7508	0.00673
x1 = 0.8	0.00582
x1 = 0.8509	0.00473
x1 = 0.9	0.00338
x1 = 0.95	0.00184

C1CCOC1 [tetrahydrofuran]
Conditions	mass density [kg/m3]
[1]	882.09

CCCCCCCCCCCC [dodecane]
Conditions	mass density [kg/m3]
[1]	745.38

CC1CCCO1 (configuration not stated) [2-methyltetrahydrofuran]
Conditions	mass density [kg/m3]
[1]	848.1

COC(C)(C)C [2-methoxy-2-methylpropane] + C1CCOC1
[2]
Conditions	excess molar enthalpy [kcal/mol]
x2 = 0.1015	0.0082
x2 = 0.1924	0.0143
x2 = 0.2745	0.0186
x2 = 0.3482	0.0216
x2 = 0.4173	0.0234
x2 = 0.4784	0.0244
x2 = 0.5358	0.0248
x2 = 0.5883	0.0243
x2 = 0.6368	0.0233
x2 = 0.6821	0.0221
x2 = 0.7242	0.0206
x2 = 0.7626	0.0188
x2 = 0.7994	0.0168
x2 = 0.8338	0.0146
x2 = 0.8655	0.0123
x2 = 0.8799	0.0112
x2 = 0.9246	0.00739
x2 = 0.9507	0.00473
x2 = 0.9761	0.00241
